According to the supplement of paper PMC4862054:

Columns and labels:
Settings in all cases: incubation time: 72 h
HDQ-P1 [1] = test: normalised response (% of control), CellTiter-Glo; higher = more viable cells (100 = DMSO, 0 = benzethonium chloride kill control)
Method in brief: (§1)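 CellTox Green fluorescence (485/520 nm) and, after 10 min at room temperature, CellTiter-Glo luminescence were read from breast cancer cell lines incubated 72 h in 384-well plates. Cells were seeded as 20 µl suspension onto compound at 5 concentrations in 10-fold steps over a 10,000-fold range chosen per compound. Each plate was normalised to 0.1 % DMSO (100) and a positive kill control (0). Values are normalised signals, one per concentration.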

HCC1143 [2] = test: as above
Method in brief: as §1

CAL-120 [3] = test: as above
Method in brief: as §1

BT-549 [4] = test: as above
Method in brief: as §1

MCF-10A [5] = test: as above
Method in brief: as §1

Hs578T [6] = test: as above
Method in brief: as §1

MDA-MB-436 [7] = test: as above
Method in brief: as §1

MDA-MB-453 [8] = test: as above
Method in brief: as §1

BT-474 [9] = test: as above
Method in brief: as §1

CAL-51 [10] = test: as above
Method in brief: as §1

CAL-85-1 [11] = test: as above
Method in brief: as §1

CAL-148 [12] = test: as above
Method in brief: as §1

MFM-223 [13] = test: as above
Method in brief: as §1

MDA-MB-231 [14] = test: as above
Method in brief: as §1

DU-4475 [15] = test: as above
Method in brief: as §1

SK-BR-3 = test: as above
Method in brief: as §1

HCC1599 [16] = test: as above
Method in brief: as §1

HCC1937 [17] = test: as above
Method in brief: as §1

MDA-MB-468 [18] = test: as above
Method in brief: as §1

HDQ-P1 [19] = test: normalised response (% of control), CellTox Green; higher = less cell death (100 = DMSO, 0 = benzethonium chloride kill control)
Method in brief: as §1

HCC1143 [20] = test: as above
Method in brief: as §1

CAL-120 [21] = test: as above
Method in brief: as §1

BT-549 [22] = test: as above
Method in brief: as §1

MCF-10A [23] = test: as above
Method in brief: as §1

Hs578T [24] = test: as above
Method in brief: as §1

MDA-MB-436 [25] = test: as above
Method in brief: as §1

MDA-MB-453 [26] = test: as above
Method in brief: as §1

BT-474 [27] = test: as above
Method in brief: as §1

CAL-51 [28] = test: as above
Method in brief: as §1

CAL-85-1 [29] = test: as above
Method in brief: as §1

CAL-148 [30] = test: as above
Method in brief: as §1

MFM-223 [31] = test: as above
Method in brief: as §1

MDA-MB-231 [32] = test: as above
Method in brief: as §1

DU-4475 [33] = test: as above
Method in brief: as §1

HCC1599 [34] = test: as above
Method in brief: as §1

HCC1937 [35] = test: as above
Method in brief: as §1

MDA-MB-468 [36] = test: as above
Method in brief: as §1

| Structure (SMILES) | normalised response (HDQ-P1 [1]) [%] | normalised response (HCC1143 [2]) [%] | normalised response (CAL-120 [3]) [%] | normalised response (BT-549 [4]) [%] | normalised response (MCF-10A [5]) [%] | normalised response (Hs578T [6]) [%] | normalised response (MDA-MB-436 [7]) [%] | normalised response (MDA-MB-453 [8]) [%] | normalised response (BT-474 [9]) [%] | normalised response (CAL-51 [10]) [%] | normalised response (CAL-85-1 [11]) [%] | normalised response (CAL-148 [12]) [%] | normalised response (MFM-223 [13]) [%] | normalised response (MDA-MB-231 [14]) [%] | normalised response (DU-4475 [15]) [%] | normalised response (SK-BR-3) [%] | normalised response (HCC1599 [16]) [%] | normalised response (HCC1937 [17]) [%] | normalised response (MDA-MB-468 [18]) [%] | normalised response (HDQ-P1 [19]) [%] | normalised response (HCC1143 [20]) [%] | normalised response (CAL-120 [21]) [%] | normalised response (BT-549 [22]) [%] | normalised response (MCF-10A [23]) [%] | normalised response (Hs578T [24]) [%] | normalised response (MDA-MB-436 [25]) [%] | normalised response (MDA-MB-453 [26]) [%] | normalised response (BT-474 [27]) [%] | normalised response (CAL-51 [28]) [%] | normalised response (CAL-85-1 [29]) [%] | normalised response (CAL-148 [30]) [%] | normalised response (MFM-223 [31]) [%] | normalised response (MDA-MB-231 [32]) [%] | normalised response (DU-4475 [33]) [%] | normalised response (HCC1599 [34]) [%] | normalised response (HCC1937 [35]) [%] | normalised response (MDA-MB-468 [36]) [%] |
| --- | --- | --- | --- | --- | --- | --- | --- | --- | --- | --- | --- | --- | --- | --- | --- | --- | --- | --- | --- | --- | --- | --- | --- | --- | --- | --- | --- | --- | --- | --- | --- | --- | --- | --- | --- | --- | --- |
| CN(C)/N=N/c1[nH]cnc1C(N)=O [Dacarbazine] (100 nM) | 98.5 | 112 | 101 | 115 | 100 | 103 | 102 | 103 | 96.8 | 101 | 106 | 105 | 105 | 107 | 105 | 107 | 92 | 102 | 100 | 105 | 82.8 | 101 | 96.7 | 107 | 79.5 | 100 | 99.6 | 101 | 110 | 105 | 106 | 105 | 101 | 102 | 101 | 106 | 85.4 |
| Cc1ccc(-n2nc(C(C)(C)C)cc2NC(=O)Nc2ccc(OCCN3CCOCC3)c3ccccc23)cc1 [Doramapimod] (100 nM) | 93 | 97.1 | 99.4 | 106 | 85.3 | 98.7 | 100 | 99.4 | 94.2 | 99.5 | 92.4 | 79.7 | 91.8 | 96.5 | 93.7 | 90.8 | 93.7 | 89.9 | 89.6 | 101 | 104 | 95.8 | 77.5 | 93.5 | 105 | 98.5 | 98.1 | 94.5 | 101 | 85.4 | 100 | 99.4 | 82.1 | 97.7 | 97.4 | 97 | 89 |
| N#CCNC(=O)c1ccc(-c2ccnc(Nc3ccc(N4CCOCC4)cc3)n2)cc1 [Momelotinib] (100 nM) | 105 | 117 | 97.2 | 102 | 85.6 | 102 | 99.1 | 110 | 92.1 | 70.4 | 101 | 94.1 | 94.8 | 94.8 | 95.9 | 95.9 | 112 | 97.8 | 90 | 102 | 78.1 | 98.2 | 104 | 66.3 | 93.5 | 104 | 101 | 100 | 83 | 102 | 97.8 | 81.4 | 53.8 | 97.5 | 89.7 | 94.6 | 168 |
| N[C@@H](CSC(c1ccccc1)(c1ccccc1)c1ccccc1)C(=O)O [S-trityl-L-cysteine] (400 nM) | 99 | 102 | 104 | 100 | 92.4 | 97.3 | 98.9 | 104 | 102 | 105 | 102 | 102 | 103 | 101 | 101 | 93.5 | 112 | 98.2 | 105 | 109 | 111 | 97.1 | 71.8 | 109 | 79.2 | 72.6 | 102 | 94.5 | 110 | 99.5 | 80.7 | 102 | 104 | 97.9 | 101 | 61.4 | 125 |
